The test system of series [1] is KB cells. To be noted: KB cells in vitro; Lin et al., 1991, 1992; cited from earlier work.
The test system of series [2] is human hepatoma PLC/PRF/5 cells. As to conditions: human hepatoma PLC/PRF/5 cells in vitro; Lin et al., 1991, 1992; cited from earlier work.
In a further series the test system is leukemia cells. To be noted: Habib et al., 1987; cited from earlier work.
In series [3] the test system is human hepatoma PLC/PRF/5 cells. Briefly: microassay for anticellular effect (cytotoxicity, ED50), PLC/PRF/5 cells. The class given is cell-based. As to conditions: for IC50: Homo sapiens; for IC50 / ED50 (PLC/PRF/5): PLC/PRF/5 cells, % viable cells on day 4, n = 8, significant activity requires ED50 < 4.0 ug/ml; for inhibitory activity in words (PLC/PRF/5): human hepatoma PLC/PRF/5 cells in vitro. The procedure: (§1) The name PLC/PRF/5 designates human primary liver cancer cells; the symbol KB designates epidermoid carcinoma cells.
(§2) PLC/PRF/5 cells were isolated from human hepatoma and are known to produce HBs Ag continuously in culture fluids. The cells were grown as continuous cultures in a growth medium consisting of Dulbecco's modified Eagle medium (DMEM, GIBCO, Grand Island, N.Y.), 10% fetal bovin serum (FBS, GIBCO), 100 IU/ml penicillin, 100 µg/ml streptomycin and 2 mM L-glutamine. The KB cells were maintained on DMEM containing 10% FBS L-glutamine and antibiotics. For the microassay, the growth medium was supplemented further with 10 mM Hepes buffer, pH 7.3.
(§3) The ED50 values were calculated from a semilog plot of the drug concentration vs. the percentage of viable cells on day 4.

For series [4], the system named is KB cells. In words: microassay for anticellular effect (cytotoxicity, ED50), KB cells. The class given is cell-based, human. To be noted: for IC50: Homo sapiens, 96 h; for inhibitory activity in words (KB): KB cells in vitro. As for the experimental part: as §1, §2, §3
Another series relates to human PLC/PRF/5 cells. Briefly: Inhibition of Macromolecular Synthesis ([3H]-thymidine, -uridine or -methionine incorporation), PLC/PRF/5 cells. The series is classed as cell-based. As to conditions: for dependence of inhibition of macromolecular biosynthesis on concentration and time (PLC/PRF/5): PLC/PRF/5 cells; for effects on DNA, RNA and protein synthesis (PLC/PRF/5): human PLC/PRF/5 cells, FIGS. 1, 3, 5; for suppression of cellular DNA, RNA and protein synthesis: overall conclusion, cell line not stated. As for the experimental part: (§4) The activity of compounds 16, 17 and 21 on macromolecular synthesis were determined by measuring the isotopic incorporation of [^3 H]-thymidine, -uridine and -methionine in the human PLC/PRF/5 and KB cells respectively.
(§5) PLC/PRF/5 cells were obtained from human hepatoma and are known to produce HBs Ag continuously in culture fluids. Human hepatoma PLC/PRF/5 and epidermis carcinoma KB cells were maintained in Dulbeceo's modified Eagle medium (DMEM, Gibco BRL Grand Island, N.Y., U.S.A.), containing 10% fetal bovine serum (FBS, Gibco BRL), 2 mM L-glutamine, 100 units mL-1 penicillin, 100 μg mL-l streptomycin. The 212 cells were maintained in Minimum essential alpha medium (MEM, Gibco BRL), containing 10% calf serum (Gibco BRL). For microassay, the growth medium was supplemented with 10 mM HEPES buffer, pH 7.3 and incubated at 37° C. in a CO2 incubation.
(§6) Inhibition of Macromolecular Synthesis. The synthesis of macromolecules were measured by the incorporation of ^3 H-thymidine, -uridine or -methionine (New England) Nuclear, Boston, Mass., USA) into the tumor cells. Briefly, the tumor cell (1 1.5×10^4 /100 μl/well) maintained in growth medium with or without drugs in microplates were incubated at 37° C. The cells after pulsed labeling with [^3 H]-thymidine, -uridine, or -methionine for 18 hrs at day 4 post-treatment were harvested and loaded onto glass filter paper (Skatron. Va., USA). The incorporation activities of the cells were measured by the liquid scintillation counter (LS-5000 TA, Beckman Calif., USA). All treatments were conducted in quadruplicate and the mean values were used for analysis. Each experiment was repeated at least 3 times. The data shown are mean counts per minute (CPM)±SEM. Percent inhibition of [^3 H]-thymidine, -uridine, or -methionine incorporation was calculated as follows: [formula]

Series [5] has as its system epidermis carcinoma KB cells. In words: Inhibition of Macromolecular Synthesis ([3H]-thymidine, -uridine or -methionine incorporation), KB cells. The class given is cell-based, human. As to conditions: for effects on DNA, RNA and protein synthesis (KB): FIGS. 2, 4, 6. As for the experimental part: as §4, §5, §6
[6] abbreviates: KB cells, % viable cells on day 4, n = 8, significant activity requires ED50 < 4.0 ug/ml.

This is an account of results in patent US5981774A, “Compounds for the treatment of hepatoma” (National Science Council, priority 1993, dated 1999).

≈ marks a conversion by molar mass, not a printed value.

Turning to `CC(C)=CC1Oc2cc(O)ccc2-c2oc3cc(O)c(/C=C/C(C)C)c(O)c3c(=O)c21` (stereo not shown) [cyclocommunin], the “cytotoxic effects (KB), isolated natural compounds” value (shortened to “cytotoxic effects (KB)”) with KB cells [1] is given as “exhibited cytotoxic effects”. In series [2], the “cytotoxic effects (PLC/PRF/5), isolated natural compounds” value was “exhibited cytotoxic effects”.

Regarding `COc1cc2c(cc1O)-c1oc3c4c(cc(O)c3c(=O)c1C(C=C(C)C)O2)OC(C)(C)C=C4` (stereo not shown) [cycloartomunin], the “cytotoxic effects (KB)” value in the series on KB cells [1] is “exhibited cytotoxic effects”. Besides, the “cytotoxic effects (PLC/PRF/5), isolated natural compounds” value in series [2] is on record as “exhibited cytotoxic effects”.

With 3',4'=deoxypsorospermin-3',4'-diol, the “cytotoxic effects against leukemia cells” value in the series on leukemia cells is “strong cytotoxic effects”.

As to `COc1cc2c(c3oc4c(O)cccc4c(=O)c13)C[C@H]([C@@]1(C)CO1)O2` [Psorospermin], the “cytotoxic effects against leukemia cells” value with leukemia cells is listed as “strong cytotoxic effects”.

On to `CC(C)=CC1Oc2cc(O)ccc2-c2oc3c4c(cc(O)c3c(=O)c21)OC(C)(C)C=C4` (stereo not shown) [cyclomorusin], for which the “cytotoxic effects (KB)” value with KB cells [1] is “exhibited cytotoxic effects”. Besides, in series [2], the “cytotoxic effects (PLC/PRF/5), isolated natural compounds” value is reported as “exhibited cytotoxic effects”.

Regarding 3',4'-deoxy-4'-chloropsorspermin-3'-ol, the “cytotoxic effects against leukemia cells” value in the series with leukemia cells is on record as “strong cytotoxic effects”.

In the case of “O^5 -methyl-3',4'-deoxypsorospermin-3'-ol”, the “cytotoxic effects against leukemia cells” value with leukemia cells was “strong cytotoxic effects”.

In general, IC50 refers to the concentration needed to halve the response being measured. Take `O=c1c2cccc(OCC3CO3)c2oc2cc(OCC3CO3)cc(O)c12` (stereo not shown) [Compound 21, 3,5-di(2,3-epoxypropoxy)-1-hydroxyxanthone]: in series [3] (96 h), the IC50 amounted to 0.061 µg/mL (≈ 0.171 µM). For the same compound, the “inhibitory activity in words (PLC/PRF/5)” value in series [3] is listed as “significant novel inhibitory activity”. In the series with KB cells [4] (setting [6]), this compound gave an IC50 of 0.089 µg/mL (≈ 0.25 µM). Besides, the “inhibitory activity in words (KB)” value in the series on KB cells [4] is reported as “significant novel inhibitory activity”. In the series with human PLC/PRF/5 cells, the “dependence of inhibition of macromolecular biosynthesis on concentration and time (PLC/PRF/5)” value (from here on “dependence of inhibition … (PLC/PRF/5)”) is “correlated with the concentration and the period of drug treatment”; the “effects on DNA, RNA and protein synthesis (PLC/PRF/5)” value (“effects on DNA … (PLC/PRF/5)” for short) is “effects are significant at low concentration”; the “suppression of cellular DNA, RNA and protein synthesis” value (shortened to “suppression of cellular DNA”) was “suppress cellular DNA, RNA and protein synthesis”. For the same compound, in series [5], the “dependence of inhibition of macromolecular biosynthesis on concentration and time (KB)” value (shortened to “dependence of inhibition … (KB)”) is recorded as “only correlated with the concentration of drug treatment”; the “effects on DNA, RNA and protein synthesis (KB)” value (shortened to “effects on DNA … (KB)”) was “not apparent”.

Turning to `O=c1c2ccccc2oc2cc(O)ccc12` [Compound 13, 3-hydroxyxanthone], the IC50 in series [3] (PLC-PRF-5, 96 h) stood at 3.73 µg/mL (≈ 17.6 µM); with KB cells [4] (setting [6]) it was 0.77 µg/mL (≈ 3.63 µM). In series [3] (5760 min), the “ED50 (PLC/PRF/5)” value was 3.75 µg/mL (≈ 17.7 µM). Further, in series [3], the “inhibitory activity in words (PLC/PRF/5)” value was “significant and potent inhibitory activity”. Moreover, the “inhibitory activity in words (KB)” value in the series with KB cells [4] was “significant and potent inhibitory activity”.

In the case of `O=c1c2ccccc2oc2cc(OCC3CO3)ccc12` (stereo not shown) [Compound 14, 3-(2,3-Epoxypropoxy)xanthone], the IC50 in series [3] (96 h) came to 1.43 µg/mL (≈ 5.33 µM); in the series with KB cells [4] (setting [6]), 0.85 µg/mL (≈ 3.17 µM). The “inhibitory activity in words (PLC/PRF/5)” value in series [3] was “enhanced very markedly the inhibitory effects”.

In the case of `O=c1c2ccc(OCC3CO3)cc2oc2ccc(OCC3CO3)cc12` (stereo not shown) [Compound 16, 2,6-di(2,3-epoxypropoxy) xanthone], 0.23 µg/mL (≈ 0.676 µM) corresponded to half-maximal inhibition in series [3] (96 h) (IC50). Also, the half-inhibitory concentration (IC50) in the series with KB cells [4] (setting [6]) came out at 0.0043 µg/mL (≈ 0.0126 µM). Further, in the series on KB cells [4], the “inhibitory activity in words (KB)” value is listed as “more potent inhibitory activity”. Further, the “ED50 potency relative to cisplatin (KB)” value in the series with KB cells [4] (KB cells, versus cisplatin) was “over 40 times”. In addition, in the series with human PLC/PRF/5 cells, the “dependence of inhibition … (PLC/PRF/5)” value was “correlated with the concentration and the period of drug treatment”; the “effects on DNA … (PLC/PRF/5)” value is “effects are significant at low concentration”; the “suppression of cellular DNA” value was “suppress cellular DNA, RNA and protein synthesis”. In series [5], the “dependence of inhibition … (KB)” value is reported as “only correlated with the concentration of drug treatment”; the “effects on DNA … (KB)” value is listed as “not apparent”.

As to 3',4'-deoxy-psorospermin, the “cytotoxic effects against leukemia cells” value in the series with leukemia cells is “strong cytotoxic effects”.

With `N.N.[Cl][Pt][Cl]` [Cisplatin, reference compound], the “ED50 (PLC/PRF/5)” value in series [3] amounted to 5.29 µg/mL. In the series on KB cells [4] (setting [6]), the “ED50 (KB)” value was 0.16 µg/mL.

Take artomunoxanth-otrione epoxide: the “cytotoxic effects (KB)” value in the series with KB cells [1] is on record as “exhibited cytotoxic effects”. Besides, the “cytotoxic effects (PLC/PRF/5), isolated natural compounds” value in series [2] is “exhibited cytotoxic effects”.

As for dihydrocyclo-artomunin, in the series with KB cells [1], the “cytotoxic effects (KB)” value is listed as “exhibited cytotoxic effects”. For the same compound, the “cytotoxic effects (PLC/PRF/5), isolated natural compounds” value in series [2] is on record as “exhibited cytotoxic effects”.

Consider cyclo-mulberrin, for which, in the series with KB cells [1], the “cytotoxic effects (KB)” value is on record as “exhibited cytotoxic effects”. Besides, the “cytotoxic effects (PLC/PRF/5), isolated natural compounds” value in series [2] is reported as “exhibited cytotoxic effects”.

For `C=C(C)C1Cc2c(oc3c4c(cc(O)c3c2=O)OC(C)(C)C=C4)-c2c(O)cc(OC)c(O)c21` (stereo not shown) [artomunoxanthone], the “cytotoxic effects (KB)” value in the series on KB cells [1] is “exhibited cytotoxic effects”. For the same compound, the “cytotoxic effects (PLC/PRF/5), isolated natural compounds” value in series [2] is reported as “exhibited cytotoxic effects”.

For `O=c1c2ccc(OCC3CO3)cc2oc2cc(OCC3CO3)ccc12` (stereo not shown) [Compound 17, 3,6-di(2,3-epoxypropxy)xanthone], in series [3] (96 h), the IC50 was found to be 0.24 µg/mL (≈ 0.705 µM). Besides, in the series on KB cells [4] (setting [6]), the IC50 was 0.11 µg/mL (≈ 0.323 µM). Also, in the series with human PLC/PRF/5 cells, the “dependence of inhibition … (PLC/PRF/5)” value is “correlated with the concentration and the period of drug treatment”; the “effects on DNA … (PLC/PRF/5)” value is reported as “effects are significant at low concentration”; the “suppression of cellular DNA” value was “suppress cellular DNA, RNA and protein synthesis”. Also, in series [5], the “dependence of inhibition … (KB)” value is listed as “only correlated with the concentration of drug treatment”; the “effects on DNA … (KB)” value is recorded as “not apparent”.

Take `CC(C)=CC1Oc2cc(O)ccc2-c2oc3cc(O)cc(O)c3c(=O)c21` (stereo not shown) [cyclocommunol]: the “cytotoxic effects (KB)” value in the series on KB cells [1] is reported as “exhibited cytotoxic effects”. Also, the “cytotoxic effects (PLC/PRF/5), isolated natural compounds” value in series [2] was “exhibited cytotoxic effects”.

As to dihydroisocycloartomunin, the “cytotoxic effects (KB)” value with KB cells [1] was “exhibited cytotoxic effects”. Moreover, the “cytotoxic effects (PLC/PRF/5), isolated natural compounds” value in series [2] was “exhibited cytotoxic effects”.
